From patent US8163737B2 (Vertex Pharmaceuticals Incorporated, priority 2006, dated 2012)

Target: endogenous CGRP receptor (Homo sapiens, UniProt O60894+Q16602)
Assay: CGRP functional antagonism using SK-N-MC-BLA (4C10), β-lactamase transcriptional reporter assay
Type: cell-based
Conditions: SK-N-MC (4C10) cells, inhibition of β-lactamase expression in the presence of 200 pM CGRP
Source text: Measuring CGRP Functional Antagonism Using SK-N-MC-BLA (4C10):
CGRP functional antagonism was characterized in a cell based transcriptional assay using a recombinant SK-N-MC line. To introduce the transcriptional reporter system, SK-N-MC cell line was transduced with a retroviral vector containing β-lactamase gene downstream of cAMP responsive promoter. The expression of β-lactamase is triggered by cAMP increase that is a downstream event of activation of endogenous CGRP receptor. Single clones were separated using Fluorescent Activated Cell Sorting (FACS) based on CGRP induced β-lactamase activity. β-lactamase activity was measured using a fluorescence energy transfer (FRET) dye, CCF4. […] To evaluate functional antagonist activity of compounds in SK-N-MC (4C10) line, compounds were evaluated for their inhibition of β-lactamase expression in the presence of CGRP.
SK-N-MC (4C10) was cultured in Minimal Essential Media (MEM) (Invitrogen) supplemented with 1 mM non-essential amino acids solution (Invitrogen), 100 units/ml Penicillin-Streptomycin (Invitrogen), 1 mM sodium pyruvate (Invitrogen) and 10% fetal bovine serum. For the β-lactamase assay, low serum, 1% FBS in MEM was used. 30,000 cells were plated into each wells of poly-D-lysine coated 384-well plate (Becton Dickinson) a day prior to the assay. SK-N-MC (4C10) was preincubated with compounds for 30 min before the addition of 200 pM CGRP. The assay was incubated for 3 hours at 37° C. to allow β-lactamase expression. CCF4 dye was added and incubated for 2 hours at room temperature. […] Curve fitting and IC50 calculation were carried about using MOD3.

Chain of endogenous CGRP receptor (Q16602 23-461): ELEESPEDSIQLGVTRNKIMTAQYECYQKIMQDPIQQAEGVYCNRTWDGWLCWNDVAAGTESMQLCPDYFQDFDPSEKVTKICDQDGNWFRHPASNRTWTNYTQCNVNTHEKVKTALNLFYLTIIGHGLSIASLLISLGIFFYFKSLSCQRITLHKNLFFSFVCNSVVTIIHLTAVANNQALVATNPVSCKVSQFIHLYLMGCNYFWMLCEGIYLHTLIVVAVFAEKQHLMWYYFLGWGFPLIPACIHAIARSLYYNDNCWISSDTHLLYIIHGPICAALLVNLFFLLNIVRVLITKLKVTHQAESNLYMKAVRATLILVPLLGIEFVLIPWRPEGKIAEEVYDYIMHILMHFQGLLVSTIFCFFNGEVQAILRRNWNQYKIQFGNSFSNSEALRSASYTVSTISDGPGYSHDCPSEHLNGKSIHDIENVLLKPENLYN
Chain of endogenous CGRP receptor (O60894 27-148): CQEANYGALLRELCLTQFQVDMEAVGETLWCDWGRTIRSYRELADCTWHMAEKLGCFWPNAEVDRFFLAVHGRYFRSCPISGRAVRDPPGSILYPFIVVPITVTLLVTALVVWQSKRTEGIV

With `CC(C)(C)CCN1C(=O)C(CC(=O)N2CCC(N3Cc4ccccc4NC3=O)CC2)SC1c1ccccc1F` (stereo not drawn) [Compound 252] the IC50 was under 1 µM.

In the case of `CC(C)CCN1C(=O)C(CC(=O)N2CCC(N3Cc4ccccc4NC3=O)CC2)SC12CCC(C(F)(F)F)CC2` (stereo not drawn) [Compound 253], the IC50 is reported as 1 to 5 µM.

`C=CCN1C(=O)C(CC(=O)N2CCC(N3Cc4ccccc4NC3=O)CC2)SC1c1ccccc1` (stereo not drawn) [Compound 254] showed an IC50 of 1 to 5 µM.

`CN1CCN(c2ccccc2C2SC(CC(=O)N3CCC(n4cc(-c5ccccc5)[nH]c4=O)CC3)C(=O)N2CCC(C)(C)C)CC1` (stereo not drawn) [Compound 257] was tested, and the IC50 was under 1 µM.

`CC(C)CCN1C(=O)C(CC(=O)N2CCC(N3CCc4ccccc4NC3=O)CC2)SC1C1CCOCC1` (stereo not drawn) [Compound 258] showed an IC50 of 1 to 5 µM.

`CC(C)CCN1C(=O)C(CC(=O)N2CCC3(CC2)CNC(=O)O3)SC1c1ccccc1` (stereo not drawn) [Compound 261] gave an IC50 of over 5 µM.

Compound `CC(C)CCN1C(=O)C(CC(=O)N2CCC(N3CCc4ccccc4NC3=O)CC2)SC1CCc1ccccc1` (stereo not drawn) [Compound 262] has an IC50 of 1 to 5 µM.

With `Cc1c(F)cccc1C1SC(CC(=O)N2CCC(N3Cc4ccccc4NC3=O)CC2)C(=O)N1CCC(C)C` (stereo not drawn) [Compound 267] the IC50 was under 1 µM.

Work on `CCCN1C(=O)C(CC(=O)N2CCC(N3Cc4ccccc4NC3=O)CC2)SC1c1ccccc1` (stereo not drawn) [Compound 269] yielded an IC50 of 1 to 5 µM.

For `CC(C)CCN1C(=O)C(CC(=O)N2CCC(N3C(=O)Cc4ccccc43)CC2)SC1c1ccccc1` (stereo not drawn) [Compound 270], the IC50 was over 5 µM.

`COc1ccc(C2SC(CC(=O)N3CCC(N4Cc5ccccc5NC4=O)CC3)C(=O)N2CCC(C)C)cc1` (stereo not drawn) [Compound 272] was tested, and the IC50 was 1 to 5 µM.

In the case of `CN1C(=O)C(CC(=O)N2CCC(N3Cc4ccccc4NC3=O)CC2)SC1c1ccccc1` (stereo not drawn) [Compound 273, 3,4-Dihydro-3-(1-(2-(3-methyl-4-oxo-2-phenylthiazolidin-5-yl)acetyl)piperidin-4-yl)quinazolin-2(1H)-one], the IC50 is reported as 1 to 5 µM.

In the case of `CN1CCN(c2ccccc2[C@@H]2SC(CC(=O)N3CCC(n4c(=O)[nH]c5ncccc54)CC3)C(=O)N2CCC(C)(C)C)CC1` (stereo partly drawn) [Compound 274], the IC50 is reported as under 1 µM.

`CC(C)CCN1C(=O)C(CC(=O)N2CCC(N3Cc4ccccc4NC3=O)CC2)SC12CCC2` (stereo not drawn) [Compound 275] gave an IC50 of over 5 µM.

`CC(C)CCN1C(=O)C(CC(=O)N2CCC(N3Cc4ccccc4NC3=O)CC2)SC1CC(C)(C)C` (stereo not drawn) [Compound 276] showed an IC50 of 1 to 5 µM.

Compound `CC(C)(C)CCN1C(=O)C(CC(=O)N2CCC(N3CCc4ccccc4NC3=O)CC2)SC1c1cccc2cc[nH]c12` (stereo not drawn) [Compound 277] has an IC50 of under 1 µM.

Work on `O=C(CC1SC(c2ccccc2)N(CCC(F)(F)F)C1=O)N1CCC(N2CCc3ccccc3NC2=O)CC1` (stereo not drawn) [Compound 280] yielded an IC50 of under 1 µM.

Work on `COc1ccc(F)cc1C1CCN(C(=O)CC2SC(c3ccccc3)N(CCC(C)C)C2=O)CC1` (stereo not drawn) [Compound 281] yielded an IC50 of over 5 µM.

For `CCN1C(=O)C(CC(=O)N2CCC(N3CCc4ccccc4NC3=O)CC2)SC1c1ccccc1` (stereo not drawn) [Compound 284], the IC50 was 1 to 5 µM.

Compound `CC(C)CCN1C(=O)C(CC(=O)N2CCC(n3c(=O)[nH]c4ccccc43)CC2)SC1c1ccccc1-n1cccn1` (stereo not drawn) [Compound 291] has an IC50 of under 1 µM.

`CC(C)CCN1C(=O)C(CC(=O)N2CCC(n3c(=O)[nH]c4ccccc43)CC2)SC1c1ccccc1N1CCCCC1` (stereo not drawn) [Compound 292] gave an IC50 of 1 to 5 µM.

Work on `CC(C)CCN1C(=O)C(CC(=O)N2CCC(n3c(=O)[nH]c4ccccc43)CC2)SC1c1ccccc1N(C)C` (stereo not drawn) [Compound 293] yielded an IC50 of under 1 µM.

Compound `CC(C)CCN1C(=O)C(CC(=O)N2CCC(n3c(=O)[nH]c4ccccc43)CC2)SC1c1ccccc1N1CCOCC1` (stereo not drawn) [Compound 294] has an IC50 of under 1 µM.

`CC(C)(C)CCN1C(=O)C(CC(=O)N2CCC(n3c(=O)[nH]c4ccccc43)CC2)SC1c1ccccc1N1CCCCC1` (stereo not drawn) [Compound 298] showed an IC50 of under 1 µM.

With `CC(C)(C)CCN1C(=O)C(CC(=O)N2CCC(n3c(=O)[nH]c4ccccc43)CC2)SC1c1ccccc1N1CCOCC1` (stereo not drawn) [Compound 300] the IC50 was under 1 µM.

With `CC(C)(C)CCN1C(=O)C(CC(=O)N2CCC(N3Cc4ccccc4NC3=O)CC2)SC1c1c[nH]cn1` (stereo not drawn) [Compound 305] the IC50 was 1 to 5 µM.

`CC(C)(C)CCN1C(=O)C(CC(=O)N2CCC(N3CCc4ccccc4NC3=O)CC2)SC12CCCc1ccccc12` (stereo not drawn) [Compound 308] was tested, and the IC50 was under 1 µM.

In the case of `CC(C)(C)CCN1C(=O)C(CC(=O)N2CCC(N3Cc4ccccc4NC3=O)CC2)SC12c1ccccc1-c1ccccc12` (stereo not drawn) [Compound 309], the IC50 is reported as 1 to 5 µM.

In the case of `CC(C)(C)CCN1C(=O)C(CC(=O)N2CCC(N3CCc4ccccc4NC3=O)CC2)SC12c1ccccc1-c1ccccc12` (stereo not drawn) [Compound 310], the IC50 is reported as under 1 µM.

With `CC(C)(C)CCN1C(=O)C(CC(=O)N2CCC(n3c(=O)[nH]c4ccccc43)CC2)SC12c1ccccc1-c1ccccc12` (stereo not drawn) [Compound 311] the IC50 was 1 to 5 µM.

`CC(C)(C)CCN1C(=O)C(CC(=O)N2CCC(N3Cc4ccccc4NC3=O)CC2)SC1(C)c1ccccc1` (stereo not drawn) [Compound 312] gave an IC50 of under 1 µM.

`CC(C)(C)CCN1C(=O)C(CC(=O)N2CCC(N3CCc4ccccc4NC3=O)CC2)SC1c1c[nH]cn1` (stereo not drawn) [Compound 313] showed an IC50 of under 1 µM.

`CC(C)(C)CCN1C(=O)C(CC(=O)N2CCC(N3CCc4ccccc4NC3=O)CC2)SC1c1ncc[nH]1` (stereo not drawn) [Compound 314] showed an IC50 of over 5 µM.

`CC(C)(C)CCN1C(=O)C(CC(=O)N2CCC(N3CCc4ccccc4NC3=O)CC2)SC12CCc1ccccc12` (stereo not drawn) [Compound 318] showed an IC50 of under 1 µM.

Compound `CN1CCN(c2ccccc2C2SC(CC(=O)N3CCC(N4Cc5cccnc5NC4=O)CC3)C(=O)N2CCC(C)(C)C)CC1` (stereo not drawn) [Compound 320] has an IC50 of under 1 µM.

With `CN1CCN(c2c(F)cccc2C2SC(CC(=O)N3CCC(N4Cc5ccccc5NC4=O)CC3)C(=O)N2CCC(C)(C)C)CC1` (stereo not drawn) [Compound 323] the IC50 was under 1 µM.

`CN1CCN(c2c(F)cccc2C2SC(CC(=O)N3CCC(n4cc(-c5ccccc5)[nH]c4=O)CC3)C(=O)N2CCC(C)(C)C)CC1` (stereo not drawn) [Compound 325] gave an IC50 of under 1 µM.

With `CN1CCN(c2ccccc2C2SC(CC(=O)N3CCC4(CC3)CC(=O)c3ccccc3O4)C(=O)N2CCC(C)(C)C)CC1` (stereo not drawn) [Compound 332] the IC50 was over 5 µM.

`CN1CCN(c2ccccc2[C@@H]2S[C@](C)(CC(=O)N3CCC(N4Cc5ccccc5NC4=O)CC3)C(=O)N2CCC(C)(C)C)CC1` [Compound 333] gave an IC50 of 1 to 5 µM.

In the case of `CN1CCN(c2ccccc2[C@H]2S[C@](C)(CC(=O)N3CCC(N4Cc5ccccc5NC4=O)CC3)C(=O)N2CCC(C)(C)C)CC1` [Compound 334], the IC50 is reported as under 1 µM.

`CN1CCN(c2c(F)cccc2C2SC(CC(=O)N3CCC(n4c(=O)[nH]c5ccccc54)CC3)C(=O)N2CCC(C)(C)C)CC1` (stereo not drawn) [Compound 338] showed an IC50 of under 1 µM.

Work on `CC(C)N1CCN(c2c(F)cccc2C2SC(CC(=O)N3CCC(n4cc(-c5ccccc5)[nH]c4=O)CC3)C(=O)N2CCC(C)(C)C)CC1` (stereo not drawn) [Compound 342] yielded an IC50 of 1 to 5 µM.

`CCN1CCN(c2c(F)cccc2C2SC(CC(=O)N3CCC(N4Cc5ccccc5NC4=O)CC3)C(=O)N2CCC(C)(C)C)CC1` (stereo not drawn) [Compound 344] was tested, and the IC50 was under 1 µM.

With `CCN1CCN(c2c(F)cccc2C2SC(CC(=O)N3CCC(n4cc(-c5ccccc5)[nH]c4=O)CC3)C(=O)N2CCC(C)(C)C)CC1` (stereo not drawn) [Compound 346] the IC50 was under 1 µM.

In the case of `CN1CCN(c2ccc(F)cc2C2SC(CC(=O)N3CCC(N4CCc5ccccc5NC4=O)CC3)C(=O)N2CCC(C)(C)C)CC1` (stereo not drawn) [Compound 352], the IC50 is reported as under 1 µM.

`CN1CCN(c2c(Cl)cccc2C2SC(CC(=O)N3CCC(N4CCc5ccccc5NC4=O)CC3)C(=O)N2CCC(C)(C)C)CC1` (stereo not drawn) [Compound 356] was tested, and the IC50 was under 1 µM.

Work on `CN1CCN(c2c(Cl)cccc2C2SC(CC(=O)N3CCC(n4cc(-c5ccccc5)[nH]c4=O)CC3)C(=O)N2CCC(C)(C)C)CC1` (stereo not drawn) [Compound 358] yielded an IC50 of over 5 µM.

`CN1CCN(c2cc(F)ccc2C2SC(CC(=O)N3CCC(N4Cc5ccccc5NC4=O)CC3)C(=O)N2CCC(C)(C)C)CC1` (stereo not drawn) [Compound 360] gave an IC50 of under 1 µM.

Work on `CN1CCN(c2cc(F)ccc2C2SC(CC(=O)N3CCC(N4CCc5ccccc5NC4=O)CC3)C(=O)N2CCC(C)(C)C)CC1` (stereo not drawn) [Compound 361] yielded an IC50 of 1 to 5 µM.

Work on `CN1CCN(c2cc(F)ccc2C2SC(CC(=O)N3CCC(n4c(=O)[nH]c5ncccc54)CC3)C(=O)N2CCC(C)(C)C)CC1` (stereo not drawn) [Compound 362] yielded an IC50 of 1 to 5 µM.

`CCCCN1CCN(c2ccccc2C2SC(CC(=O)N3CCC(N4Cc5ccccc5NC4=O)CC3)C(=O)N2CCC(C)(C)C)CC1` (stereo not drawn) [Compound 364] was tested, and the IC50 was over 5 µM.

`CCCCN1CCN(c2ccccc2C2SC(CC(=O)N3CCC(n4c(=O)[nH]c5ncccc54)CC3)C(=O)N2CCC(C)(C)C)CC1` (stereo not drawn) [Compound 366] showed an IC50 of under 1 µM.

In the case of `CN1CCCN(c2ccccc2C2SC(CC(=O)N3CCC(N4Cc5ccccc5NC4=O)CC3)C(=O)N2CCC(C)(C)C)CC1` (stereo not drawn) [Compound 369], the IC50 is reported as 1 to 5 µM.

In the case of `CN1CCCN(c2ccccc2C2SC(CC(=O)N3CCC(N4CCc5ccccc5NC4=O)CC3)C(=O)N2CCC(C)(C)C)CC1` (stereo not drawn) [Compound 370], the IC50 is reported as under 1 µM.

`CC(C)(C)CCN1C(=O)C(CC(=O)N2CCC(N3CCc4ccccc4NC3=O)CC2)SC1c1ccccc1N1CCN(CCO)CC1` (stereo not drawn) [Compound 372] showed an IC50 of over 5 µM.

`CN1CCN(c2ccccc2[C@H]2S[C@](C)(CC(=O)N3CCC(N4CCc5ccccc5NC4=O)CC3)C(=O)N2CCC(C)(C)C)CC1` [Compound 377] was tested, and the IC50 was 1 to 5 µM.

With `CN1CCN(c2ccccc2[C@@H]2S[C@](C)(CC(=O)N3CCC(n4c(=O)[nH]c5ncccc54)CC3)C(=O)N2CCC(C)(C)C)CC1` [Compound 378] the IC50 was under 1 µM.
